Data as given in ChEMBL document CHEMBL5291721, “A preclinical secondary pharmacology resource illuminates target-adverse drug reaction associations of marketed drugs” (Nat Commun, 2023).

Legend:
D(1A) dopamine receptor = D(1A) dopamine receptor (Homo sapiens, UniProt P21728); format: functional, cell-based
[1] = biological target: T1, Alpha-2B adrenergic receptor (Homo sapiens, UniProt P18089)
T1 sequence (P18089 whole entry): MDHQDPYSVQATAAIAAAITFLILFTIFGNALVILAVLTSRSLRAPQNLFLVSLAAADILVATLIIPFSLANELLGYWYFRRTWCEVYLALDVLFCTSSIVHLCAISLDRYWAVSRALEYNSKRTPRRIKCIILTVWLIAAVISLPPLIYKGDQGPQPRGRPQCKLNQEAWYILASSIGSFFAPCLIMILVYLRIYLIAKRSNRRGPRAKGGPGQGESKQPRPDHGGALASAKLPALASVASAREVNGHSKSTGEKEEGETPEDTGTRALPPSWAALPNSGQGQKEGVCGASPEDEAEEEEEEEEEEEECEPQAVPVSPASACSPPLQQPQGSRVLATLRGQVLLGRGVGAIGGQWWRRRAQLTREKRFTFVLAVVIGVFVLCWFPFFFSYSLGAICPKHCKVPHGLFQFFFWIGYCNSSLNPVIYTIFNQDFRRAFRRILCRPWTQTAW

[2] = biological target: T2, Alpha-2C adrenergic receptor (Homo sapiens, UniProt P18825); format: functional
T2 sequence (P18825 whole entry): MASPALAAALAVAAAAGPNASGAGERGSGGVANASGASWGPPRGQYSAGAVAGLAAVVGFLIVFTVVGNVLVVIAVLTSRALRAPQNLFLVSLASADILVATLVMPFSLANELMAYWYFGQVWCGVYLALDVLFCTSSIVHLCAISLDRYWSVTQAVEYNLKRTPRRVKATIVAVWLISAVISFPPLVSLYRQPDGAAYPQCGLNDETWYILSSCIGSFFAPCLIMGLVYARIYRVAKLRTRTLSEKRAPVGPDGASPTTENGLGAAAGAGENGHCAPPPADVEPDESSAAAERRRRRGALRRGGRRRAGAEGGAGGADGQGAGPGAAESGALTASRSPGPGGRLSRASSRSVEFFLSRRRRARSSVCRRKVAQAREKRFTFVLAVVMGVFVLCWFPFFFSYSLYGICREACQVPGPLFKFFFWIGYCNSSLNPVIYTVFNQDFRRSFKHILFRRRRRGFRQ

Histamine H2 receptor = Histamine H2 receptor (Homo sapiens, UniProt P25021); format: functional, cell-based
[3] = biological target: cGMP-inhibited 3',5'-cyclic phosphodiesterase 3A (Homo sapiens, UniProt Q14432); format: functional
Adenosine receptor A1 = biological target: T3, Adenosine receptor A1 (Homo sapiens, UniProt P30542)
T3 sequence (P30542 whole entry): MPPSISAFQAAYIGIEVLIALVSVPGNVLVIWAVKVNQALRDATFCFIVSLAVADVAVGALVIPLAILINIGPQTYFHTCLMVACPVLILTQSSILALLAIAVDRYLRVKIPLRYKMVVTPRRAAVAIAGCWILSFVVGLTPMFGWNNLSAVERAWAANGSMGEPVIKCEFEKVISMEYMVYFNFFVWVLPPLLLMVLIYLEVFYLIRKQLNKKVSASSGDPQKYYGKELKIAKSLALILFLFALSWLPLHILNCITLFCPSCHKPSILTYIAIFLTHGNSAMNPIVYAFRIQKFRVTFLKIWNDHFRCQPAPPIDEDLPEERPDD

[4] = biological target: 5-hydroxytryptamine receptor 2B (Homo sapiens, UniProt P41595); format: functional, cell-based
[5] = biological target: T4, Alpha-2A adrenergic receptor (Homo sapiens, UniProt P08913); format: functional, cell-based
T4 sequence (P08913 whole entry): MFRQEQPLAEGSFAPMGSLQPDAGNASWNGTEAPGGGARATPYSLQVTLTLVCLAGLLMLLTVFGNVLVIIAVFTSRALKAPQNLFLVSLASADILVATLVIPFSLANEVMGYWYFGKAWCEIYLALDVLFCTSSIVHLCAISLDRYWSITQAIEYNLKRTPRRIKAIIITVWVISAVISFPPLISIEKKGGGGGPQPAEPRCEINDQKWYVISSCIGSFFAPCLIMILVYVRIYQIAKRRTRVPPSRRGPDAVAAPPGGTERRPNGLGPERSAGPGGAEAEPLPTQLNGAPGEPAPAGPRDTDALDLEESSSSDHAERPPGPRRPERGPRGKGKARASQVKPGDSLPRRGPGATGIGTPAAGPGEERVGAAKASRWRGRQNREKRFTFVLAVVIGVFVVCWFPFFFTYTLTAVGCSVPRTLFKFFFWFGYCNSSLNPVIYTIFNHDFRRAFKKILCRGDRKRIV

Cannabinoid receptor 1 = Cannabinoid receptor 1 (Homo sapiens, UniProt P21554); format: functional, cell-based
[6] = biological target: T4, Alpha-2A adrenergic receptor; format: functional, cell-based; remark: listed apart in the source
Also: assay procedure not described here.

Chain of Histamine H2 receptor (P25021 whole entry): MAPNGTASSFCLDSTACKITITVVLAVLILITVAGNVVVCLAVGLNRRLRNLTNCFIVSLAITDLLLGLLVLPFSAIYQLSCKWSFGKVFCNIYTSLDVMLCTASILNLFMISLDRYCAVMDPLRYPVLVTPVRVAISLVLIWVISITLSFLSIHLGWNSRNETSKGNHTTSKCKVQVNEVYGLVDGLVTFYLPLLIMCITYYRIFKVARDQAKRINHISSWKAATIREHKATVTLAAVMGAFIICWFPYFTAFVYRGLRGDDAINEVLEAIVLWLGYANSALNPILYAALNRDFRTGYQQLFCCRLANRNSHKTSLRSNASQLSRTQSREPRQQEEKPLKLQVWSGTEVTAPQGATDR
Chain of Cannabinoid receptor 1 (P21554 whole entry): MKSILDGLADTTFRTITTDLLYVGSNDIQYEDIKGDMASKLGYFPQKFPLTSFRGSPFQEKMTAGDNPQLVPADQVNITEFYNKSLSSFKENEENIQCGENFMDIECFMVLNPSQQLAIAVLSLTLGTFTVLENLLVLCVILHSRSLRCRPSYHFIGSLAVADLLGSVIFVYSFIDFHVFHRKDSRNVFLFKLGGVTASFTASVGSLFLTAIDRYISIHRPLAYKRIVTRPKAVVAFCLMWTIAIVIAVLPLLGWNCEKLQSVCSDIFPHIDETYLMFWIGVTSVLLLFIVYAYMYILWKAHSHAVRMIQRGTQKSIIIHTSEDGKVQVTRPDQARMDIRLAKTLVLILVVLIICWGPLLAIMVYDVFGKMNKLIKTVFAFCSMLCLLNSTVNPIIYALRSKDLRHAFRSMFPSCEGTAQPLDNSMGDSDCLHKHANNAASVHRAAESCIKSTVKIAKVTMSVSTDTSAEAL
Chain of cGMP-inhibited 3',5'-cyclic phosphodiesterase 3A (Q14432 whole entry): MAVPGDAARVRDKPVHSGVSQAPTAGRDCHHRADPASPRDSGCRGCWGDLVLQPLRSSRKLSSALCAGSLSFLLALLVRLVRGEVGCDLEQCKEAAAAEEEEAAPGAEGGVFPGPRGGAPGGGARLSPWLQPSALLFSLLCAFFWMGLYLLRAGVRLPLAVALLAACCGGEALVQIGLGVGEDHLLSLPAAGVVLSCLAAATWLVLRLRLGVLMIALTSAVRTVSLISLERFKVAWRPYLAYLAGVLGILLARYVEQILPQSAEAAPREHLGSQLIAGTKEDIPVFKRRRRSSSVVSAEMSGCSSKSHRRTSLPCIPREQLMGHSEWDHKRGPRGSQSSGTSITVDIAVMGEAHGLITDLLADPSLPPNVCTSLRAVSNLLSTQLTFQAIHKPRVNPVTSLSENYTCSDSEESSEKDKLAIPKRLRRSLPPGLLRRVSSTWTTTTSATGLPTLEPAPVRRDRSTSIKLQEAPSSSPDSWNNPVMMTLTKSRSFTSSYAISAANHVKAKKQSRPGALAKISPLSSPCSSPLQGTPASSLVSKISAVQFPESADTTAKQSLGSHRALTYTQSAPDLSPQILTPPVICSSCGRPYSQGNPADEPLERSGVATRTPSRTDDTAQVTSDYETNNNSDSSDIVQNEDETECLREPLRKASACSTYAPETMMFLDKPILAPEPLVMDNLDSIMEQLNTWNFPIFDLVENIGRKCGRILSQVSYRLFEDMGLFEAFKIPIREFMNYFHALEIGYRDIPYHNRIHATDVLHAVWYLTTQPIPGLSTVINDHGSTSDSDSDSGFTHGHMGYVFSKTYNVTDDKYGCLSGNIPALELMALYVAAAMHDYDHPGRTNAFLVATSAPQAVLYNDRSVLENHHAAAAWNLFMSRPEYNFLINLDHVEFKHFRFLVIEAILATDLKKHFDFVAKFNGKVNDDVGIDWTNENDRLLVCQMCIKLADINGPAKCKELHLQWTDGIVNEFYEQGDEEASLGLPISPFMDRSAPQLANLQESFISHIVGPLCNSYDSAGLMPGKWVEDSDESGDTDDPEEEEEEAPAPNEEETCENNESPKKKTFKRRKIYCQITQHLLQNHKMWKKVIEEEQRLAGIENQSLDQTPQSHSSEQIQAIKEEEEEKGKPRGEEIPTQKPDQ
Chain of 5-hydroxytryptamine receptor 2B (P41595 whole entry): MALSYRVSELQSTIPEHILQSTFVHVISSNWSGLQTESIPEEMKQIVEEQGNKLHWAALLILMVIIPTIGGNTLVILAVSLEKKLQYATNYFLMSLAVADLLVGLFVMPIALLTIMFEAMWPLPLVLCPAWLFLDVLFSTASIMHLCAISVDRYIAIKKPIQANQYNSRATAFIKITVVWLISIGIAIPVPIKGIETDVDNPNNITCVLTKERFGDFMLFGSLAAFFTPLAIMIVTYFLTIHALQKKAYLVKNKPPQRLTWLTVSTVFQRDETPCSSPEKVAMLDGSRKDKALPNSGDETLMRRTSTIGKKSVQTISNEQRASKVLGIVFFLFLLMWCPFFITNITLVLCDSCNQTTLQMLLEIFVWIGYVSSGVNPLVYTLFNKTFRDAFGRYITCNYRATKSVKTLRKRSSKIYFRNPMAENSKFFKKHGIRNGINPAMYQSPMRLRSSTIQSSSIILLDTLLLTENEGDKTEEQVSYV
Chain of D(1A) dopamine receptor (P21728 whole entry): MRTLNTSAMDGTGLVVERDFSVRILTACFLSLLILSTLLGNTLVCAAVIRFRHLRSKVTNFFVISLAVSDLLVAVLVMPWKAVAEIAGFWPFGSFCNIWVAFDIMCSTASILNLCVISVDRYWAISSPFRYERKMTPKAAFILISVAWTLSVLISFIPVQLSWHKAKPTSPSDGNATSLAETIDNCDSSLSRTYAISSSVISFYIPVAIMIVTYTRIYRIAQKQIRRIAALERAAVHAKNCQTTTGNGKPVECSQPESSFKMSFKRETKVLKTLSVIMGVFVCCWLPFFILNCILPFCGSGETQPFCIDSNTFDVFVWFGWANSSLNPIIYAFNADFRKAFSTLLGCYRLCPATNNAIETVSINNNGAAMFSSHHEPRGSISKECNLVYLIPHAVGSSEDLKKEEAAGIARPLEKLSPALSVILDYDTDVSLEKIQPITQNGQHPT

Row | SMILES | AC50 (D(1A) dopamine receptor) [µM] | AC50 [1] [µM] | AC50 [2] [µM] | AC50 (Histamine H2 receptor) [µM] | AC50 [3] [µM] | AC50 (Adenosine receptor A1) [µM] | AC50 [4] [µM] | AC50 [5] [µM] | AC50 (Cannabinoid receptor 1) [µM] | AC50 [6] [µM]
1 | Cc1cc(C)c(NC(=O)CN(CC(=O)O)CC(=O)O)c(C)c1Br [MEBROFENIN] | > 30 | > 30 | > 30 | > 30 | > 30 | > 30 | > 30 | > 30 | > 30 | > 30
2 | COC1=C(OC)C(=O)C(C/C=C(\C)CC/C=C(\C)CC/C=C(\C)CC/C=C(\C)CC/C=C(\C)CC/C=C(\C)CC/C=C(\C)CC/C=C(\C)CC/C=C(\C)CCC=C(C)C)=C(C)C1=O [UBIDECARENONE] | > 30 | > 30 | > 30 | > 30 | > 30 | > 30 | > 30 | > 30 | > 30 | > 30
3 | CN1CCN(C2=Nc3ccccc3Sc3ccc(Cl)cc32)CC1 [CLOTHIAPINE] | > 30 | 1.3 | 2.1 | > 30 | > 30 | > 30 | > 30 | > 30 | > 30 | > 30
4 | COc1ccccc1N1CCN(CC(O)COc2cccc3ccccc23)CC1 (stereo not given) [NAFTOPIDIL] | > 30 | 0.3 | 0.2 | 1.3 | > 30 | > 30 | > 30 | > 30 | > 30 | 3.7
